According to the supplement of paper PMC10307832:

Key:
Assay in all cases: relative viability (nuclei count vs DMSO), 5 days (fraction); higher = more cells survive
YM155 + Lapatinib = compound: COCC[n+]1c2c(n(Cc3cnccn3)c1C)C(=O)c1ccccc1C2=O [YM155] + CS(=O)(=O)CCNCc1ccc(-c2ccc3ncnc(Nc4ccc(OCc5cccc(F)c5)c(Cl)c4)c3c2)o1 [Lapatinib] (partner 2 µM)
Method in brief: (§1)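 For relative viability, nuclei counts in treated wells were divided by those in vehicle wells. Lung cancer cell lines had been pin-tool dosed in 1536-well plates the day after seeding and cultured for 5 days, then fixed and stained in one step (final 0.05% Triton X-100, 1% formaldehyde, 1 ug/ml Hoechst) and imaged at 4×. Doses were one drug alone or a fixed anchor-drug dose plus five library-drug doses (not always all listed) in √10 steps, and values are duplicate-plate medians.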

YM155 + Luminespib = compound: COCC[n+]1c2c(n(Cc3cnccn3)c1C)C(=O)c1ccccc1C2=O [YM155] + CCNC(=O)c1noc(-c2cc(C(C)C)c(O)cc2O)c1-c1ccc(CN2CCOCC2)cc1 [Luminespib] (partner 0.01 µM)
Method in brief: as §1

YM155 + AZD7762 = compound: COCC[n+]1c2c(n(Cc3cnccn3)c1C)C(=O)c1ccccc1C2=O [YM155] + NC(=O)Nc1cc(-c2cccc(F)c2)sc1C(=O)N[C@H]1CCCNC1 [AZD7762] (partner 0.2 µM)
Method in brief: as §1

Quizartinib + OSI-027 = compound: CC(C)(C)c1cc(NC(=O)Nc2ccc(-c3cn4c(n3)sc3cc(OCCN5CCOCC5)ccc34)cc2)no1 [Quizartinib] + COc1cccc2cc(-c3nc([C@H]4CC[C@H](C(=O)O)CC4)n4ncnc(N)c34)[nH]c12 [OSI-027] (partner 0.5 µM)
Method in brief: as §1

Cell Line	relative viability (YM155 + Lapatinib; first compound 0.002 µM)	relative viability (YM155 + Lapatinib; first compound 0.006325 µM)	relative viability (YM155 + Lapatinib; first compound 0.02 µM)	relative viability (YM155 + Lapatinib; first compound 0.06325 µM)	relative viability (YM155 + Luminespib; first compound 0.002 µM)	relative viability (YM155 + Luminespib; first compound 0.006325 µM)	relative viability (YM155 + Luminespib; first compound 0.02 µM)	relative viability (YM155 + Luminespib; first compound 0.06325 µM)	relative viability (YM155 + AZD7762; first compound 0.002 µM)	relative viability (YM155 + AZD7762; first compound 0.006325 µM)	relative viability (YM155 + AZD7762; first compound 0.02 µM)	relative viability (YM155 + AZD7762; first compound 0.06325 µM)	relative viability (Quizartinib + OSI-027; first compound 0.001 µM)	relative viability (Quizartinib + OSI-027; first compound 0.003162 µM)	relative viability (Quizartinib + OSI-027; first compound 0.01 µM)	relative viability (Quizartinib + OSI-027; first compound 0.03162 µM)	relative viability (Quizartinib + OSI-027; first compound 0.1 µM)
201T	1.02	0.992	0.956	0.96	1.05	1.06	1.04	1.09	0.592	0.639	0.561	0.698	0.421	0.691	0.692	0.412	0.615
A549	0.93	0.872	0.598	0.0781	–	–	–	–	–	–	–	–	–	–	–	–	–
A-427	1	0.994	1.07	0.987	0.895	0.965	0.85	0.441	0.741	0.793	0.752	0.312	–	0.446	0.437	0.484	0.529
ABC-1	1.13	–	1.18	0.518	0.439	0.386	0.169	0.256	0.66	0.84	0.47	0.195	0.428	0.472	0.495	0.383	0.415
BEN	0.59	0.746	0.782	0.86	0.33	0.728	0.617	0.417	0.538	0.625	0.769	0.692	0.259	0.326	0.325	0.282	0.284
CAL-12T	–	0.768	0.61	0.588	0.362	0.766	0.414	0.183	0.621	0.715	0.672	0.534	0.658	0.683	0.862	0.503	0.846
COR-L23	0.837	0.917	0.503	0.15	0.562	0.378	0.16	0.115	–	–	–	–	0.743	0.73	0.946	0.696	0.768
COR-L 105	0.33	0.353	0.337	0.368	0.813	0.641	0.57	0.529	–	–	–	–	0.656	0.69	0.649	0.619	0.678
Calu-6	1.04	0.992	0.271	0.143	–	–	–	–	–	–	–	–	–	–	–	–	–
ChaGo-K-1	–	–	–	–	0.651	0.509	0.715	0.714	0.847	0.822	0.915	0.821	0.574	0.613	0.61	0.514	0.584
EBC-1	0.229	0.203	0.208	0.196	–	–	–	–	–	–	–	–	–	–	–	–	–
EKVX	0.214	0.286	0.221	0.182	0.847	0.855	0.888	0.724	0.591	0.723	0.747	0.483	0.43	0.691	0.656	0.674	0.728
EMC-BAC-2	0.795	0.899	0.874	0.817	1.19	1.11	1.12	0.982	1.04	1.15	1.07	0.785	0.348	0.397	0.364	–	0.413
EPLC-272H	1.05	0.854	0.941	0.949	0.378	0.327	0.186	0.24	0.227	0.296	0.196	0.253	0.249	0.28	0.264	0.271	0.263
H3255	0.24	0.241	0.265	0.263	0.752	0.949	0.948	1.02	0.886	0.913	1.05	0.796	0.502	0.589	0.628	0.62	0.433
HARA	0.623	0.862	0.701	0.959	0.683	0.906	0.95	0.686	–	0.542	0.521	0.499	–	0.523	0.368	0.423	0.325
HCC-15	0.802	0.911	0.868	0.69	0.361	0.369	0.311	0.161	0.661	1.28	1.19	1.17	–	0.71	0.583	–	0.644
HCC-44	0.994	0.998	1.02	1.08	1.04	1.05	0.92	0.219	1.04	1.06	1.07	0.976	–	0.641	0.416	0.475	0.549
HCC-78	0.672	0.806	0.968	0.833	–	–	–	–	0.612	0.779	0.755	0.629	0.398	0.375	0.357	0.325	0.377
